Values after ≈ are worked out from the molar mass of the structure shown.
How the values were obtained:
[1] = tested on: lung cancer (HvEvc) cell line; experiment: antiproliferative MTT assay, HvEvc; format: cell-based; details: MTT method, 72 h
Procedure: (§1) Antiproliferative activities of compounds were evaluated by the MTT method using mammary cancer (F10) and lung cancer (HvEvc) cell lines. In MTT assay, the cell suspensions (200 μL) at a density of 1 × 10^5 cells mL^−1 were plated in 96-well microtiter plates and incubated for 24 h at 37 °C in a humidified incubator at 5% CO2. The tested compound solution (2 μL in DMSO) at different concentrations was added to each well and further incubated for 72 h in the same condition. Then, the MTT solution (50 μL) was added to each well and incubated for 4 h. The old medium (150 μL) containing MTT was then gently replaced by DMSO. Absorbance was then determined on a Spectra Max Plus plate reader at 490 nm.

brine shrimp larvae = experiment: in vivo; details: for LC50 against brine shrimp larvae: 96 well plates assay; for LD50 (brine shrimp): brine shrimp larvae, 96 well plates, 24 h incubation
Procedure: (§2) According to the method described by Wanyoike, brine shrimp eggs (Ocean Star International, Inc., USA) were hatched in a large beaker containing natural sea water (South China Sea) and they were cultured at room temperature for 48 h. With the help of a light source, the larvae grouped together on one side of the vessel and were easily collected for the assay. […] Each test was processed in triplicate with approximate ten larvae. Brine shrimps were counted under a magnifying glass after 24 h of incubation and maintaining the 96 well plates under illumination. The controls were prepared in the same manner except that the test samples were omitted.

in vivo = details: brine shrimp, in vivo, other: larvae exposed in sea water in 96 well plate, LC50 against brine shrimp larvae; 96 well plates assay
Procedure: as §2

[2] = tested on: mammary cancer (F10) cell line; experiment: antiproliferative MTT assay, F10; format: cell-based; details: MTT method, 72 h
Procedure: as §1

[3] = tested on: P-388 lymphocytic leukemia; design: method as in PMID 490172; details: mice, 10 mg/Kg; cited from earlier work
Lewis lung carcinoma = tested on: Lewis lung carcinoma; design: method as in PMID 490172; details: mice, 1.25 mg/Kg; cited from earlier work
[4] = design: method as in PMID 10378778; details: cited from earlier work
[5] = tested on: P-388 lymphocytic leukemia; design: method as in doi:10.1021/jo00150a028; details: in vitro; cited from earlier work

## COc1ccc2ccc(=O)oc2c1/C=C/C(CO)COC(=O)CC(C)C (stereo not shown) [Compound 1, 7-Methoxy-8-(2-hydroxmethyl-1-O-isovaleryl-4-butenyl)coumarin]
[1]
  IC50: 35.7 µg/mL (≈ 99.1 µM)
Brine shrimp larvae
  LC50 against brine shrimp larvae: < 10 µM
  LD50 (brine shrimp): 6.8 µg/mL
In vivo
  LC50 at 24 h: 6.8 µg/mL (≈ 18.9 µM)

## C=C(C)C(OC1OC(CO)C(O)C(O)C1O)C(O)c1c(OC)ccc2ccc(=O)oc12 (stereo not drawn) [Compound 2, 7-Methoxy-8-(1-hydroxy-2-O-β-glucopyranosyl-3-methyl-4-butene-1-yl)coumarin]
[1]
  IC50: 68.5 µg/mL (≈ 156 µM)
Brine shrimp larvae
  LD50 (brine shrimp): 29.1 µg/mL
In vivo
  LC50 at 24 h: < 500 µg/mL
[2]
  IC50: 23.6 µg/mL (≈ 53.8 µM)

## COc1cc2oc(=O)ccc2cc1C=O [Compound 4, 6-formyl-7-methoxycoumarin]
Brine shrimp larvae
  LD50 (brine shrimp): >500 µg/mL

## COc1ccc2ccc(=O)oc2c1C(C=O)=C(C)C [Compound 5, murralongin]
Brine shrimp larvae
  LD50 (brine shrimp): >500 µg/mL

## COc1ccc2ccc(=O)oc2c1/C=C/C(C)(C)O [Compound 6, murraol]
[1]
  IC50 (HvEvc): 172.5 µg/mL (≈ 663 µM)
Brine shrimp larvae
  LC50 against brine shrimp larvae: < 500 µM
  LD50 (brine shrimp): 199.3 µg/mL

## C=C(C)C(CO)c1c(OC)ccc2ccc(=O)oc12 (stereo not shown) [Compound 10, isomurralonginol]
[1]
  IC50 (HvEvc): 72.6 µg/mL (≈ 279 µM)
Brine shrimp larvae
  LC50 against brine shrimp larvae: < 500 µM
  LD50 (brine shrimp): 50.6 µg/mL

## C=C(C)C(O)C(OC)c1c(OC)ccc2ccc(=O)oc12 (stereo not shown) [Compound 11, murracarpin]
[1]
  IC50 (HvEvc): 124.3 µg/mL (≈ 428 µM)
Brine shrimp larvae
  LC50 against brine shrimp larvae: < 500 µM
  LD50 (brine shrimp): 158.5 µg/mL

## COc1cc2oc(=O)ccc2cc1[C@@H]1OC(=O)[C@@]2(C)O[C@@H]12 [micromelin]
[3]
  T/C: 149%
Lewis lung carcinoma
  T/C: 228%

## C=C(C)[C@H](O)[C@@H](O)c1c(OC)ccc2ccc(=O)oc12 [minumicrolin]
[4]
  anti-tumor promoting activity: valuable anti-tumor promoting agents

## C=C(C)[C@@H](O)[C@@H](O)c1c(OC)ccc2ccc(=O)oc12 [murrangatin]
[4]
  anti-tumor promoting activity: valuable anti-tumor promoting agents

## (E)-osthenone [Compound 9]
Brine shrimp larvae
  LD50 (brine shrimp): >500 µg/mL

## arscotin [Compound 7]
Brine shrimp larvae
  LC50 against brine shrimp larvae: < 500 µM
  LD50 (brine shrimp): 118.5 µg/mL

## methoxymicrominutinin [Compound 13]
Brine shrimp larvae
  LD50 (brine shrimp): >500 µg/mL

## microfalcatin isovalerate [Compound 14]
[2]
  IC50 (F10): 112.0 µg/mL

## microminutin [Compound 3]
Brine shrimp larvae
  LC50 against brine shrimp larvae: < 500 µM
  LD50 (brine shrimp): 107.3 µg/mL
[5]
  ED50: 3.7 µg/mL
[2]
  IC50 (F10): 82.9 µg/mL

## microminutinin [Compound 12]
Brine shrimp larvae
  LD50 (brine shrimp): >500 µg/mL

## murralonginol [Compound 8]
Brine shrimp larvae
  LD50 (brine shrimp): >500 µg/mL

— paper PMC6269003, “Two New Coumarins from Micromelum falcatum with Cytotoxicity and Brine Shrimp Larvae Toxicity” (Molecules, 2012)
